# In ChEMBL document CHEMBL1148777, “Toward the development of prophylactic and therapeutic human papillomavirus type-16 lipopeptide vaccines” (J Med Chem, 2007):
# Activity calls are given as the source filed them. The rule behind the calls is not given here. *1 amine or outer side, *2 acyl side, *3 side chain or, on linkers, in order; H or OH if unused. Where a SMILES comes first, the peptide text is derived from it. [ ]: non-standard residue; d: D form. The star is where a group is joined. ξ: configuration not given here. X3 = CC(=O)OC[C@@H]1O[C@H](N*)[C@H](OC(C)=O)[C@H](OC(C)=O)[C@H]1OC(C)=O; X2 = OC[C@@H]1O[C@H](N*)[C@@H](O)[C@H](O)[C@H]1O; X1 = OC[C@@H]1O[C@H](N*)[C@H](O)[C@H](O)[C@H]1O; Ile(3ξ) = CCC(C)[C@H](N)C(=O)O; Thr(3ξ) = CC(O)[C@H](N)C(=O)O; Suc = O=C(CCC(=O)[*:2])[*:1]
# Legend:
# [1] = system: TC1; experiment: Antitumor activity against HPV16 associated TC1 cells xenografted C57BL/6(H2b) mouse
# [2] = system: TC1; experiment: Antitumor activity against HPV16 associated TC1 cells xenografted C57BL/6(H2b) mouse at 40 ug; assay type: functional
SMILES,Activity [1],Activity [2]
CC[C@H](C)[C@H](NC(=O)[C@@H](NC(=O)[C@@H](N)CO)[C@@H](C)CC)C(=O)N[C@@H](CC(N)=O)C(=O)N[C@@H](Cc1ccccc1)C(=O)N[C@@H](CCC(=O)O)C(=O)N[C@@H](CCCCN)C(=O)N[C@@H](CC(C)C)C(=O)O,inactive,–
CCC(C)[C@H](NC(=O)[C@H](CC(N)=O)NC(=O)[C@H](Cc1ccc(O)cc1)NC(=O)[C@H](Cc1cnc[nH]1)NC(=O)[C@H](C)NC(=O)[C@H](CCCNC(=N)N)NC(=O)[C@H](CC(=O)O)NC(=O)[C@@H]1CCCN1C(=O)[C@H](CCC(=O)O)NC(=O)[C@H](C)NC(=O)[C@H](CCC(N)=O)NC(=O)CCC(=O)N[C@H]1O[C@@H](CO)[C@H](O)[C@@H](O)[C@H]1O)C(=O)N[C@H](C(=O)N[C@H](C(=O)N[C@@H](Cc1ccccc1)C(=O)N[C@@H](CS)C(=O)N[C@@H](CS)C(=O)N[C@@H](CCCCN)C(=O)N[C@@H](CS)C(=O)N[C@@H](CC(=O)O)C(N)=O)C(C)O)C(C)C (some centres undefined) ({X1-Suc}-QAEPDRAHYN[Ile(3ξ)]V[Thr(3ξ)]FCCKCD-NH2),–,inactive
CCC(C)[C@H](NC(=O)[C@H](CC(N)=O)NC(=O)[C@H](Cc1ccc(O)cc1)NC(=O)[C@H](Cc1cnc[nH]1)NC(=O)[C@H](C)NC(=O)[C@H](CCCNC(=N)N)NC(=O)[C@H](CC(=O)O)NC(=O)[C@@H]1CCCN1C(=O)[C@H](CCC(=O)O)NC(=O)[C@H](C)NC(=O)[C@H](CCC(N)=O)NC(=O)CCC(=O)N[C@H]1O[C@@H](CO)[C@H](O)[C@@H](O)[C@@H]1O)C(=O)N[C@H](C(=O)N[C@H](C(=O)N[C@@H](Cc1ccccc1)C(=O)N[C@@H](CS)C(=O)N[C@@H](CS)C(=O)N[C@@H](CCCCN)C(=O)N[C@@H](CS)C(=O)N[C@@H](CC(=O)O)C(N)=O)C(C)O)C(C)C (some centres undefined) ({X2-Suc}-QAEPDRAHYN[Ile(3ξ)]V[Thr(3ξ)]FCCKCD-NH2),–,inactive
CCC(C)[C@H](NC(=O)[C@H](CC(N)=O)NC(=O)[C@H](Cc1ccc(O)cc1)NC(=O)[C@H](Cc1cnc[nH]1)NC(=O)[C@H](C)NC(=O)[C@H](CCCNC(=N)N)NC(=O)[C@H](CC(=O)O)NC(=O)[C@@H]1CCCN1C(=O)[C@H](CCC(=O)O)NC(=O)[C@H](C)NC(=O)[C@H](CCC(N)=O)NC(=O)CCC(=O)N[C@H]1O[C@@H](COC(C)=O)[C@H](OC(C)=O)[C@@H](OC(C)=O)[C@H]1OC(C)=O)C(=O)N[C@H](C(=O)N[C@H](C(=O)N[C@@H](Cc1ccccc1)C(=O)N[C@@H](CS)C(=O)N[C@@H](CS)C(=O)N[C@@H](CCCCN)C(=O)N[C@@H](CS)C(=O)N[C@@H](CC(=O)O)C(N)=O)C(C)O)C(C)C (some centres undefined) ({X3-Suc}-QAEPDRAHYN[Ile(3ξ)]V[Thr(3ξ)]FCCKCD-NH2),–,inactive
